Results reported in patent US10626095B2, “Cyanotriazole compounds” (OTSUKA PHARMACEUTICAL CO., LTD., priority 2013, dated 2020).

Test system: NaCT-CHO (CHO cells stably expressing human NaCT)
Assay: Assay of the citric acid cycle activation ([1,5-14C]-citric acid, diffusion of [14C]-CO2)
Type: cell-based
Details: 1 hour incubation at 37° C. with [1,5-14C]-citric acid
Text: Assay of the Citric Acid Cycle Activation
(1) Construction of the Human NaCT Expression Vector pME-NaCT
The human NaCT (also called SLC13A5 or NAC2; GenBank accession No. NM_177550) cDNA was inserted into the EcoRI-NotI site of the mammalian expression vector pME18S (GenBank accession No. AB009864) and purified by Qiagen Plasmid Maxi Kit (Qiagen).
(2) Establishment of NaCT Stably Expressed CHO Cells
The pME-NaCT vector and the pcDNA™3.1 vector containing the neomycin resistance gene (Life Technologies) were co-transfected into CHO-K1 cells (ATCC) by Lipofectaimine 2000 reagent (Life Technologies). The next day the cells were subcultured in Nutrient Mixture F-12 Ham (Sigma-Aldrich) with 10% FBS (Biological Industries), and Geneticin (Life Technologies) was added (final concentration 350 μg/mL) in the following day. CHO cell clones stably expressing NaCT were given by neomycin resistant cell screening and limiting dilution method. Established cell lines (named NaCT-CHO) were also maintained in culture medium (Nutrient Mixture F-12 Ham) with 10% FBS and 350 μg/mL Geneticin. For control cells (named pME-CHO) preparation, the naive pME18S were also transfected instead of pME-NaCT into CHO-K1 cells.
(3) Assay of the Citric Acid Cycle Activation
NaCT-CHO and pME-CHO were plated at 20,000 cells/well into white CulturPlate™-96 (PerkinElmer) two days before the assay. Prior to assay incubation, the cultured plates were washed twice with washing buffer, 10 mM HEPES-Tris(pH7.4) containing 140 mM choline chloride, 2 mM KCl, 1 mM CaCl2, 1 mM MgCl2. The compounds to be tested were dissolved and diluted in DMSO (Wako Pure Chemical industries) to 1,000 times of a final concentration, and further diluted to two times as high as the final concentration in assay buffer, 10 mM HEPES-Tris(pH7.4) containing 140 mM NaCl, 2 mM KCl, 1 mM CaCl2, 1 mM MgCl2. The range of final concentrations was properly determined based on the test compounds activity. Each 25 μL compound solution was added to well and subsequently 25 μL radio-labeled substrate solution containing 0.4 mM (0.4 MBq/mL) [1,5-^14C]-citric acid (PerkinElmer) in the assay buffer was added. After 1 hour incubation at 37° C., the reaction mixture was discarded and washed three times with pre-chilled washing buffer and then 0.1 mL MicroScint 20 (PerkinElmer) was added to well. The plate was sealed with TopSeal-A (PerkinElmer) and the radioactivity was measured using a TopCount (PerkinElmer). Non-specific activity (NS cpm) and total radio activity (Total cpm) were determined by counting of pME-CHO plated wells and NaCT-CHO plated wells without compounds, respectively. Diffusion of [^14C]—CO2 was able to be estimated from residual radioactivity (R cpm) by an equation (Total−R)/(Total−NS)×100(%). The difference of Total and R was disappeared in the presence of 0.1 μM antimycin A. EC50 values were calculated by regression analysis using SAS Statistical Analysis System (SAS institute Japan Ltd. Release 9.1).

SMILES | EC50 [µM]
CC(C)Cc1oc(-c2ccc(F)c(F)c2)nc1-c1nn[nH]c1C#N [Example 125, 5-[2-(3,4-difluoro-phenyl)-5-isobutyl-oxazol-4-yl]-3H-[1,2,3]triazole-4-carbonitrile] | 0.54
Cc1sc(-c2ccc(C(F)(F)F)cn2)nc1-c1nn[nH]c1C#N [Example 93, 5-[5-methyl-2-(5-trifluoromethyl-pyridin-2-yl)-thiazol-4-yl]-3H-[1,2,3]triazole-4-carbonitrile] | 0.58
N#Cc1[nH]nnc1-c1cccc(-c2cccc(C(F)(F)F)c2)n1 [Example 141, 5-[6-(3-trifluoromethyl-phenyl)-pyridin-2-yl]-3H-[1,2,3]triazole-4-carbonitrile] | 0.71
CC(C)Oc1ccc(-c2nn[nH]c2C#N)cc1-c1ccc(C(F)(F)F)nc1 [Example 17] | 0.52
N#Cc1[nH]nnc1-c1cc(OCCCC(F)(F)F)cc(C(F)(F)F)c1 [Example 2, 5-[3-(4,4,4-trifluoro-butoxy)-5-trifluoromethyl-phenyl]-3H-[1,2,3]triazole-4-carbonitrile] | 0.28
N#Cc1[nH]nnc1-c1cc(Cl)cc(Cc2cc(C(F)(F)F)ccc2C(F)(F)F)c1 [Example 35, 5-[3-(2,5-bis-trifluoromethyl-benzyl)-5-chloro-phenyl]-3H-[1,2,3]triazole-4-carbonitrile] | 0.34
CCCc1sc(-c2ccc(Cl)cc2)nc1-c1nn[nH]c1C#N [Example 103, 5-[2-(4-chloro-phenyl)-5-propyl-thiazol-4-yl]-3H-[1,2,3]triazole-4-carbonitrile] | 0.23
N#Cc1[nH]nnc1-c1csc(-c2ccc(OC(F)(F)F)cc2)n1 [Example 80, 5-[2-(4-trifluoromethoxy-phenyl)-thiazol-4-yl]-3H-[1,2,3]triazole-4-carbonitrile] | 0.87
N#Cc1[nH]nnc1-c1cc(Cc2ccc(F)cc2)cc(OC(F)(F)F)c1 [Example 34, 5-[3-(4-fluoro-benzyl)-5-trifluoromethoxy-phenyl]-3H-[1,2,3]triazole-4-carbonitrile] | 0.46
N#Cc1[nH]nnc1C1CCN(c2cc(C(F)(F)F)ccc2C(F)(F)F)CC1 [Example 144, 5-[1-(2,5-bis-trifluoromethyl-phenyl)-piperidin-4-yl]-3H-[1,2,3]triazole-4-carbonitrile] | 0.79
N#Cc1[nH]nnc1-c1nc(-c2ccc(Cl)cc2)sc1-c1ccc(C(F)(F)F)cc1 [Example 107, 5-[2-(4-chloro-phenyl)-5-(4-trifluoromethyl-phenyl)-thiazol-4-yl]-3H-[1,2,3]triazole-4-carbonitrile] | 2.56
N#Cc1[nH]nnc1-c1cc(Oc2ccccc2)cc(C(F)(F)F)c1 [Example 37, 5-(3-phenoxy-5-trifluoromethyl-phenyl)-3H-[1,2,3]triazole-4-carbonitrile] | 0.12
N#Cc1[nH]nnc1-c1cc(Cl)cc(-c2ccc3c(c2)OC(F)(F)O3)c1 [Example 30, 5-[3-chloro-5-(2,2-difluoro-benzo[1,3]dioxol-5-yl)-phenyl]-3H-[1,2,3]triazole-4-carbonitrile] | 0.64
COc1ccccc1COc1cc(-c2nn[nH]c2C#N)cc(C(F)(F)F)c1 [Example 61, 5-[3-(2-methoxy-benzyloxy)-5-trifluoromethyl-phenyl]-3H-[1,2,3]triazole-4-carbonitrile] | 0.44
N#Cc1[nH]nnc1-c1cc(-c2ccsc2)cc(C(F)(F)F)c1 [Example 10, 5-(3-(thiophen-3-yl)-5-trifluoromethyl-phenyl)-3H-[1,2,3]triazole-4-carbonitrile] | 0.07
N#Cc1[nH]nnc1-c1ccc(Cc2ccc(Cl)cc2)s1 [Example 131, 5-[5-(4-chloro-benzyl)-thiophen-2-yl]-3H-[1,2,3]triazole-4-carbonitrile] | 0.44
Cc1sc(Sc2cccc(C(F)(F)F)c2)nc1-c1nn[nH]c1C#N [Example 97, 5-[5-methyl-2-(3-trifluoromethyl-phenylsulfanyl)-thiazol-4-yl]-3H-[1,2,3]triazole-4-carbonitrile] | 0.5

SMILES | EC50 [µM]
N#Cc1[nH]nnc1-c1sccc1-c1cccc(OCc2cc(C(F)(F)F)ccc2C(F)(F)F)c1 [Example 127, 5-{3-[3-(2,5-bis-trifluoromethyl-benzyloxy)-phenyl]-thiophen-2-yl}-3H-[1,2,3]triazole-4-carbonitrile] | 0.74
Cn1c(-c2cc(F)cc(C(F)(F)F)c2)ccc1-c1nn[nH]c1C#N [Example 139, 5-[5-(3-fluoro-5-trifluoromethyl-phenyl)-1-methyl-1H-pyrrol-2-yl]-3H-[1,2,3]triazole-4-carbonitrile] | 0.21
CC(Cc1ccccc1)Oc1cc(-c2nn[nH]c2C#N)cc(C(F)(F)F)c1 (stereo not drawn) [Example 67, 5-[3-(1-methyl-2-phenyl-ethoxy)-5-trifluoromethyl-phenyl]-3H-[1,2,3]triazole-4-carbonitrile] | 0.49
CC(Oc1cc(-c2nn[nH]c2C#N)cc(C(F)(F)F)c1)c1ccccc1 (stereo not drawn) [Example 64, 5-[3-(1-phenyl-ethoxy)-5-trifluoromethyl-phenyl]-3H-[1,2,3]triazole-4-carbonitrile] | 0.24
N#Cc1[nH]nnc1-c1cccc(COc2ccc(C(F)(F)F)cn2)c1 [Example 56, 5-[3-(5-trifluoromethyl-pyridin-2-yloxymethyl)-phenyl]-3H-[1,2,3]triazole-4-carbonitrile] | 0.73
N#Cc1[nH]nnc1-c1cc(OC2CCC2)cc(-c2ccc(C(F)(F)F)nc2)c1 [Example 19, 5-[3-cyclobutoxy-5-(6-trifluoromethyl-pyridin-3-yl)-phenyl]-3H-[1,2,3]triazole-4-carbonitrile] | 0.53
N#Cc1[nH]nnc1-c1ccc2ccn(-c3ccc(F)c(F)c3)c2c1 [Example 145, 5-[1-(3,4-difluoro-phenyl)-1H-indol-6-yl]-3H-[1,2,3]triazole-4-carbonitrile] | 0.37
CC(C)c1oc(-c2ccc(F)cc2)nc1-c1nn[nH]c1C#N [Example 123, 5-[2-(4-fluoro-phenyl)-5-isopropyl-oxazol-4-yl]-3H-[1,2,3]triazole-4-carbonitrile] | 0.68
CCc1sc(-c2ccc(C(F)(F)F)nc2)nc1-c1nn[nH]c1C#N [Example 101, 5-[5-ethyl-2-(6-trifluoromethyl-pyridin-3-yl)-thiazol-4-yl]-3H-[1,2,3]triazole-4-carbonitrile] | 0.85
Cc1cc(-c2nn[nH]c2C#N)sc1-c1ccc(C(F)(F)F)cc1 [Example 130, 5-[4-methyl-5-(4-trifluoromethyl-phenyl)-thiophen-2-yl]-3H-[1,2,3]triazole-4-carbonitrile] | 0.73
N#Cc1[nH]nnc1-c1cccc(CSCc2ccc(OC(F)(F)F)cc2)c1 [Example 65, 5-[3-(4-trifluoromethoxy-benzylsulfanylmethyl)-phenyl]-3H-[1,2,3]triazole-4-carbonitrile] | 0.79
N#Cc1[nH]nnc1-c1cccc(CCOc2ccc(C(F)(F)F)cn2)c1 [Example 66, 5-{3-[2-(5-trifluoromethyl-pyridin-2-yloxy)-ethyl]-phenyl}-3H-[1,2,3]triazole-4-carbonitrile] | 0.66
N#Cc1[nH]nnc1-c1cccn1Cc1ccc(C(F)(F)F)cc1C(F)(F)F [Example 138, 5-[1-(2,4-bis-trifluoromethyl-benzyl)-1H-pyrrol-2-yl]-3H-[1,2,3]triazole-4-carbonitrile] | 0.062
N#Cc1[nH]nnc1-c1cccc(-c2nc3cc(F)ccc3o2)c1 [Example 27, 5-[3-(5-fluoro-benzoxazol-2-yl)-phenyl]-3H-[1,2,3]triazole-4-carbonitrile] | 0.89
COc1sc(-c2ccc(Cl)cc2)nc1-c1nn[nH]c1C#N [Example 110, 5-[2-(4-chloro-phenyl)-5-methoxy-thiazol-4-yl]-3H-[1,2,3]triazole-4-carbonitrile] | 3.23
N#Cc1[nH]nnc1-c1nc(-c2ccc(OC(F)(F)F)cc2)cs1 [Example 74, 5-[4-(4-trifluoromethoxy-phenyl)-thiazol-2-yl]-3H-[1,2,3]triazole-4-carbonitrile] | 2.91
